From US8557816B2, “Aurora kinase modulators and method of use” (Amgen Inc., priority 2007, dated 2013)

Experiments:
AuroraB = target: T1, AuroraB (Homo sapiens, UniProt Q96GD4); experiment: AuroraB Homogeneous Time Resolved Fluorescent (HTRF) kinase assay; type: biochemical; conditions: average; read-out: AurB_IC50_IP (uM Avg)
T1 construct: 20 μL of AuroraB FL H is for a final volume of 41 μL; His
Outline: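 Full-length His-tagged kinase phosphorylates biotinylated Histone H3 (0.1 μM final) with ATP in pH 7.5 HEPES containing MgCl, MnCl, DTT and BSA for about 90 min. EDTA-containing detection mix with SA-APC and Eu-anti-phosphoHistone H3 then equilibrated about 60 min; HTRF read with 320 nm excitation, emissions 615/655 nm.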

AuroraA-TPX2 = target: T2, AuroraA-TPX2 (Homo sapiens, UniProt O14965); experiment: AuroraA-TPX2 Homogeneous Time Resolved Fluorescent (HTRF) kinase assay; type: biochemical; conditions: average; read-out: AurA_IC50_IP (uM Avg)
T2 construct: 20 μL of AuroraA-TPX2 KD GST for a final volume of about 41 μL; GST
T2 sequence (O14965 133-383 limits assumed): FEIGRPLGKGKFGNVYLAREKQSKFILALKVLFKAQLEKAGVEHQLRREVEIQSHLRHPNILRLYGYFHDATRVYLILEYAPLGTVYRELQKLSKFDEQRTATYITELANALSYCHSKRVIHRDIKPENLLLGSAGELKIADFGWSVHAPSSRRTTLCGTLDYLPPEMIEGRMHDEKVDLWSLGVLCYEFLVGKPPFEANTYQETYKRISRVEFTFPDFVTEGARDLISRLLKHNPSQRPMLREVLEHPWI
T2 sequence (Q9ULW0 1-43 partner limits assumed): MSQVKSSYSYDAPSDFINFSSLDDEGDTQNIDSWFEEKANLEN
Outline: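 HTRF read-out (Eu 615 nm to APC 655 nm) of phosphorylated biotin-PLK, detected with 0.02 nM europium anti-phosphoPLK antibody and 0.0005 mg/mL SA-APC after overnight equilibration.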

T1 sequence (Q96GD4 whole entry): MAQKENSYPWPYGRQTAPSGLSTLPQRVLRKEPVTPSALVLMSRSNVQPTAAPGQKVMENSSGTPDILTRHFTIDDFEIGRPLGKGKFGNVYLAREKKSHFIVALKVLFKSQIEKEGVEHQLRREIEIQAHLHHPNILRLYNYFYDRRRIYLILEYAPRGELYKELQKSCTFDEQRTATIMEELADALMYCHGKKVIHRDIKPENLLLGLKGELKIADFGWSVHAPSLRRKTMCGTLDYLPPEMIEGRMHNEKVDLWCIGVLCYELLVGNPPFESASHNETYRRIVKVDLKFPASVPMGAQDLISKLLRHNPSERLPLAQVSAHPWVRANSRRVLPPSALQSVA

How did the IC50 (AuroraB) turn out when `Cc1csc(-c2nnc(Nc3ccc(Oc4ccnc5cc(C(N)=O)ccc45)cc3)c3ccccc23)n1` [compound 95, 4-((4-((4-(4-methyl-1,3-thiazol-2-yl)-1-phthalazinyl)amino)phenyl)oxy)-7-quinolinecarboxamide] was run?
The IC50 was 0.002 µM.

What about the IC50 (AuroraA-TPX2) of the same molecule?
Its IC50 is 0.027 µM.

Which IC50 (AuroraB) does the source give for `COc1cc2nccc(Oc3ccc(Nc4nnc(-c5ccccc5)c5ccccc45)cc3)c2cn1` [compound 96, N-(4-((7-(methyloxy)-1,6-naphthyridin-4-yl)oxy)phenyl)-4-phenyl-1-phthalazinamine] here?
The IC50 was 0.005 µM.

What about the IC50 (AuroraA-TPX2) of the same molecule?
The IC50 was 0.026 µM.

`COc1cnc2c(Oc3ccc(Nc4nnc(N5CCN6CCC[C@H]6C5)c5ccccc45)cc3)ccnc2c1` [compound 97, 4-((8aS)-hexahydropyrrolo[1,2-a]pyrazin-2(1H)-yl)-N-(4-((7-(methyloxy)-1,5-naphthyridin-4-yl)oxy)phenyl)-1-phthalazinamine] was tested. Which IC50 (AuroraB) did it give?
Its IC50 is 0.002 µM.

And the IC50 (AuroraA-TPX2)?
Its IC50 is 0.01 µM.

With `COc1cc2ncnc(Oc3ccc(Nc4nnc(-c5ccccc5)c5ccccc45)cc3)c2cc1OC` [compound 98, N-(4-((6,7-bis(methyloxy)-4-quinazolinyl)oxy)phenyl)-4-phenyl-1-phthalazinamine] as the molecule, how does the IC50 (AuroraB) read?
The IC50 was 0.007 µM.

What about the IC50 (AuroraA-TPX2) of the same molecule?
The IC50 was 0.016 µM.

Which IC50 (AuroraB) does the source give for `COc1cnc2c(Oc3ccc(Nc4nnc(-c5cccc(OC)n5)c5ccccc45)cc3)ccnc2c1` [compound 99, N-(4-((7-(methyloxy)-1,5-naphthyridin-4-yl)oxy)phenyl)-4-(6-(methyloxy)-2-pyridinyl)-1-phthalazinamine] here?
Its IC50 is 0.002 µM.

What about the IC50 (AuroraA-TPX2) of the same molecule?
Its IC50 is 0.01 µM.

What does the source list for `COc1ccc2c(Oc3ccc(Nc4nnc(-c5cccc(OC)n5)c5ccccc45)cc3)ccnc2c1` [compound 100, 4-(6-(methyloxy)-2-pyridinyl)-N-(4-((7-(methyloxy)-4-quinolinyl)oxy)phenyl)-1-phthalazinamine]?
IC50 (AuroraB): 0.006 µM; IC50 (AuroraA-TPX2): 0.038 µM

Which results are given for `COc1cccc(-c2nnc(Nc3ccc(Oc4ccnc5cc(OC)c(OC)cc45)cc3)c3ccccc23)n1` [compound 101, N-(4-((6,7-bis(methyloxy)-4-quinolinyl)oxy)phenyl)-4-(6-(methyloxy)-2-pyridinyl)-1-phthalazinamine]?
IC50 (AuroraB): 0.01 µM; IC50 (AuroraA-TPX2): 0.01 µM

`COc1cccc(-c2nnc(Nc3ccc(Oc4ccnc5cc(C#N)ccc45)cc3)c3ccccc23)n1` [compound 102, 4-((4-((4-(6-(methyloxy)-2-pyridinyl)-1-phthalazinyl)amino)phenyl)oxy)-7-quinolinecarbonitrile] was tested. Which IC50 (AuroraB) did it give?
Its IC50 is 0.003 µM.

What about the IC50 (AuroraA-TPX2) of the same molecule?
Its IC50 is 0.028 µM.

Which IC50 (AuroraB) does the source give for `COc1cc2nccc(Oc3ccc(Nc4nnc(-c5ccc(C)cn5)c5ccccc45)cc3)c2cn1` [compound 103, N-(4-((7-(methyloxy)-1,6-naphthyridin-4-yl)oxy)phenyl)-4-(5-methyl-2-pyridinyl)-1-phthalazinamine] here?
The IC50 was 0.004 µM.

And the IC50 (AuroraA-TPX2)?
The IC50 was 0.035 µM.

How did the IC50 (AuroraB) turn out when `COc1cc2nccc(Sc3ccc(Nc4nnc(-c5ccccc5)c5ccccc45)cc3)c2cc1OC` [compound 104, N-(4-((6,7-bis(methyloxy)-4-quinolinyl)thio)phenyl)-4-phenyl-1-phthalazinamine] was run?
Its IC50 is 0.042 µM.

What about the IC50 (AuroraA-TPX2) of the same molecule?
The IC50 was 0.036 µM.

With `N#Cc1ccc2c(Oc3ccc(Nc4nnc(-c5ccccc5)c5ccccc45)cc3)ccnc2c1` [compound 105, 4-((4-((4-phenyl-1-phthalazinyl)amino)phenyl)oxy)-7-quinolinecarbonitrile] as the molecule, how does the IC50 (AuroraB) read?
The IC50 was 0.003 µM.

And the IC50 (AuroraA-TPX2)?
Its IC50 is 0.039 µM.

For `COc1cc2nccc(Oc3ccc(Nc4nnc(-c5ccc(C(C)(C)C)cc5)c5ccccc45)cc3)c2cc1OC` [compound 106, N-(4-((6,7-bis(methyloxy)-4-quinolinyl)oxy)phenyl)-4-(4-(1,1-dimethylethyl)phenyl)-1-phthalazinamine], which IC50 (AuroraB) is on record?
Its IC50 is 0.038 µM.

And the IC50 (AuroraA-TPX2)?
The IC50 was 0.01 µM.

With `COc1cnc2c(Oc3ccc(Nc4nnc(-c5ccccc5)cc4C)cc3)ccnc2c1` [compound 107, 4-methyl-N-(4-((7-(methyloxy)-1,5-naphthyridin-4-yl)oxy)phenyl)-6-phenyl-3-pyridazinamine] as the molecule, how does the IC50 (AuroraB) read?
The IC50 was 0.005 µM.

What about the IC50 (AuroraA-TPX2) of the same molecule?
The IC50 was 0.018 µM.

What does the source list for `CCc1cc(-c2ccccc2)nnc1Nc1ccc(Oc2ccnc3cc(OC)cnc23)cc1` [compound 108, 4-ethyl-N-(4-((7-(methyloxy)-1,5-naphthyridin-4-yl)oxy)phenyl)-6-phenyl-3-pyridazinamine]?
IC50 (AuroraB): 0.004 µM; IC50 (AuroraA-TPX2): 0.016 µM

What does the source list for `COc1cc2nccc(Oc3ccc(Nc4nnc(N5CCN(C)CC5)c5ccccc45)cc3)c2cn1` [compound 109, N-(4-((7-(methyloxy)-1,6-naphthyridin-4-yl)oxy)phenyl)-4-(4-methyl-1-piperazinyl)-1-phthalazinamine]?
IC50 (AuroraB): 0.001 µM; IC50 (AuroraA-TPX2): 0.06 µM

What does the source list for `COc1cc2nccc(Oc3ccc(Nc4nnc(-c5cccc(C)n5)c5ccccc45)cc3)c2cn1` [compound 110, N-(4-((7-(methyloxy)-1,6-naphthyridin-4-yl)oxy)phenyl)-4-(6-methyl-2-pyridinyl)-1-phthalazinamine]?
IC50 (AuroraB): 0.002 µM; IC50 (AuroraA-TPX2): 0.043 µM

Which results are given for `COc1cnc2c(Oc3ccc(Nc4nnc(-c5cccc(C)n5)c5ccccc45)cc3)ccnc2c1` [compound 111, N-(4-((7-(methyloxy)-1,5-naphthyridin-4-yl)oxy)phenyl)-4-(6-methyl-2-pyridinyl)-1-phthalazinamine]?
IC50 (AuroraB): 0.005 µM; IC50 (AuroraA-TPX2): 0.04 µM

With `COc1cc2nccc(Oc3ccc(Nc4nnc(-c5cccc(CO)n5)c5ccccc45)cc3)c2cc1OC` [compound 112, (6-(4-((4-((6,7-bis(methyloxy)-4-quinolinyl)oxy)phenyl)amino)-1-phthalazinyl)-2-pyridinyl)methanol] as the molecule, how does the IC50 (AuroraB) read?
Its IC50 is 0.003 µM.

What about the IC50 (AuroraA-TPX2) of the same molecule?
Its IC50 is 0.015 µM.

Which results are given for `COc1cc2nccc(Oc3ccc(Nc4nnc(-c5cccc(COC(C)=O)n5)c5ccccc45)cc3)c2cc1OC` [compound 113, (6-(4-((4-((6,7-bis(methyloxy)-4-quinolinyl)oxy)phenyl)amino)-1-phthalazinyl)-2-pyridinyl)methyl acetate]?
IC50 (AuroraB): 0.011 µM; IC50 (AuroraA-TPX2): 0.014 µM

Which results are given for `COc1cnc2c(Oc3ccc(Nc4nnc(-c5cccc(CO)n5)c5ccccc45)cc3)ccnc2c1` [compound 114, (6-(4-((4-((7-(methyloxy)-1,5-naphthyridin-4-yl)oxy)phenyl)amino)-1-phthalazinyl)-2-pyridinyl)methanol]?
IC50 (AuroraB): 0.005 µM; IC50 (AuroraA-TPX2): 0.036 µM

For `Fc1cc(Nc2nnc(-c3ccccc3)c3ccccc23)ccc1Oc1ccnc2ccccc12` [compound 115, N-(3-fluoro-4-(4-quinolinyloxy)phenyl)-4-phenyl-1-phthalazinamine], which IC50 (AuroraB) is on record?
Its IC50 is 0.006 µM.

What about the IC50 (AuroraA-TPX2) of the same molecule?
The IC50 was 0.163 µM.

Which results are given for `COc1cnc2c(Oc3ccc(Nc4nnc(-c5cc(C)ccn5)c5ccccc45)cc3)ccnc2c1` [compound 116, N-(4-((7-(methyloxy)-1,5-naphthyridin-4-yl)oxy)phenyl)-4-(4-methyl-2-pyridinyl)-1-phthalazinamine]?
IC50 (AuroraB): 0.011 µM; IC50 (AuroraA-TPX2): 0.062 µM

`COc1cc2nccc(Oc3ccc(Nc4nnc(-c5cc(C)ccn5)c5ccccc45)cc3)c2cc1OC` [compound 117, N-(4-((6,7-bis(methyloxy)-4-quinolinyl)oxy)phenyl)-4-(4-methyl-2-pyridinyl)-1-phthalazinamine] was tested. Which IC50 (AuroraB) did it give?
The IC50 was 0.043 µM.

And the IC50 (AuroraA-TPX2)?
The IC50 was 0.057 µM.

For `COc1ccc2c(Oc3ccc(Nc4nnc(-c5cc(C)ccn5)c5ccccc45)cc3)ccnc2c1` [compound 118, N-(4-((7-(methyloxy)-4-quinolinyl)oxy)phenyl)-4-(4-methyl-2-pyridinyl)-1-phthalazinamine], which IC50 (AuroraB) is on record?
The IC50 was 0.009 µM.

And the IC50 (AuroraA-TPX2)?
The IC50 was 0.136 µM.
